13 compounds from US7294636B2, “Chemical compounds” (AstraZeneca AB, priority 2003, dated 2007) can be followed below.

The test deals with recombinant human CCR5 receptor (Homo sapiens, UniProt P51681). Briefly: in vitro radioligand binding assay, inhibition of MIP-1α binding (scintillation proximity). The conditions noted are these: displacement of 0.1 nM iodinated MIP-1α; membranes from Chinese hamster ovary cells expressing CCR5; negative log10 of IC50 (M); average if tested more than once. As to the method: The ability of compounds to inhibit the binding of MIP-1α was assessed by an in vitro radioligand binding assay. Membranes were prepared from Chinese hamster ovary cells which expressed the recombinant human CCR5 receptor. These membranes were incubated with 0.1 nM iodinated MIP-1α, scintillation proximity beads and various concentrations of the compounds of the invention in 96-well plates. The amount of iodinated MP-1α bound to the receptor was determined by scintillation counting. Competition curves were obtained for compounds and the concentration of compound which displaced 50% of bound iodinated MIP-1α was calculated (IC50).
Chain of recombinant human CCR5 receptor (P51681 whole entry): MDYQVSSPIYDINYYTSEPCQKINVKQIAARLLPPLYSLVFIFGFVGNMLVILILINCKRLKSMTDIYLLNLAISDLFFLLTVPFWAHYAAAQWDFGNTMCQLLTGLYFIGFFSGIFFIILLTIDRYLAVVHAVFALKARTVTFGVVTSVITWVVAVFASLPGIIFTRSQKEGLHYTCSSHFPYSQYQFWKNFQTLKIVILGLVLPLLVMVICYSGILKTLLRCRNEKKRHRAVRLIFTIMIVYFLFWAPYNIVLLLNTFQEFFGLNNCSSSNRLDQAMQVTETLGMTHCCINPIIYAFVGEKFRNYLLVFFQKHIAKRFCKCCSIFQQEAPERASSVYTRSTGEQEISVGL
In Table III the results are presented as Pic50 values. […] If a compound was tested more than once then the data below is an average of the probative tests results.
On the technique in general: Scintillation proximity formats need no separation of bound from free tracer.
In the case of `CS(=O)(=O)c1ccc([C@@H](CCN2CCC(n3cnc4cc(S(C)(=O)=O)ccc43)CC2)c2ccccc2)cc1` [Compound No. 5], the IC50 was 3.98e-09 M. The same measure for `CSc1ccc(Cc2noc(C3CCN(CCC(c4ccccc4)c4ccc(S(C)(=O)=O)cc4)CC3)n2)cc1` (stereo not shown) [Compound No. 6]: 6.31e-08 M.

In the case of `CS(=O)(=O)c1ccc([C@@H](CCN2CCC(n3cnc4cc(S(C)(=O)=O)ccc43)CC2)c2ccsc2)cc1` [Compound No. 7], the IC50 is 1e-08 M. With `Cc1nnc(C(C)C)n1C1CCN(CC[C@H](c2ccc(S(C)(=O)=O)cc2)c2cc(F)cc(F)c2)CC1` [Compound No. 12], the IC50 is 2e-08 M.

With `Cc1noc(C2CCN(CC[C@@H](c3ccccc3)c3ccc(S(C)(=O)=O)cc3)CC2)n1` [Compound No. 13], the IC50 was 1.58e-07 M. As to `CS(=O)(=O)c1ccc([C@@H](CCN2CCC(n3cnc4cc(S(C)(=O)=O)ccc43)CC2)c2cccs2)cc1` [Compound No. 8], the IC50 was 1e-08 M. `CS(=O)(=O)c1ccc(Cc2noc(C3CCN(CC[C@@H](c4ccccc4)c4ccc(S(C)(=O)=O)cc4)CC3)n2)cc1` [Compound No. 3]: the IC50 is 1.26e-09 M. Turning to `Cc1nnc(C(C)C)n1C1CCN(CC[C@H](c2ccc(S(C)(=O)=O)cc2)c2cccc(F)c2)CC1` [Compound No. 2], the IC50 was 3.98e-08 M.

`CS(=O)(=O)c1ccc([C@@H](CCN2CCC(n3cnc4cc(S(C)(=O)=O)ccc43)CC2)c2cccc(F)c2)cc1` [Compound No. 1, (R)-1-{1-[3-(3-fluoro-phenyl)-3-(4-methanesulfonyl-phenyl)-propyl]-piperidin-4-yl}-5-methanesulfonyl-1H-benzoimidazole]: the IC50 was 1e-09 M. As to `CS(=O)(=O)c1ccc([C@@H](CCN2CCC(n3cnc4cc(S(C)(=O)=O)ccc43)CC2)c2cc(Cl)cs2)cc1` [Compound No. 10], the IC50 was 2e-08 M. With `CS(=O)(=O)c1ccc([C@@H](CCN2CCC(c3nc(Cc4ccccc4)no3)CC2)c2ccccc2)cc1` [Compound No. 4], the IC50 was 1.58e-08 M. As to `CS(=O)(=O)c1ccc([C@@H](CCN2CCC(n3cnc4cc(S(C)(=O)=O)ccc43)CC2)c2ccc(Cl)s2)cc1` [Compound No. 9], the IC50 was 2e-08 M.

With `CS(=O)(=O)c1ccc([C@@H](CCN2CCC(n3cnc4cc(S(C)(=O)=O)ccc43)CC2)c2cc(F)cc(F)c2)cc1` [Compound No. 11], the IC50 is 1e-09 M.

As usually defined, the IC50 is the concentration needed to halve the response being measured.
